{"source": "the supplement of paper PMC10307832", "assay_in_all_cases": "relative viability (nuclei count vs DMSO), 5 days (fraction); higher = more cells survive", "key": {"[1]": {"compound": "C(C(=O)C(=O)O)Br [Bromopyruvate] + CC(=O)Nc1cccc(-n2c(=O)n(C3CC3)c(=O)c3c(Nc4ccc(I)cc4F)n(C)c(=O)c(C)c32)c1 [Trametinib] (partner 0.02 µM)", "method_in_brief": "(§1)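 Dosing by pin tool came one day after lung cancer cell lines were seeded in 1536-well plates, using either one drug or a fixed anchor-drug dose plus five library-drug doses (not always all listed) in √10 steps. After 5 days, nuclei were counted on 4× images. Relative viability is treated-well nuclei count divided by vehicle-well nuclei count, and values are medians of duplicate plates.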"}, "[2]": {"compound": "C(C(=O)C(=O)O)Br [Bromopyruvate] + CS(=O)(=O)CCNCc1ccc(-c2ccc3ncnc(Nc4ccc(OCc5cccc(F)c5)c(Cl)c4)c3c2)o1 [Lapatinib] (partner 2 µM)", "method_in_brief": "as §1"}, "[3]": {"compound": "C(C(=O)C(=O)O)Br [Bromopyruvate] + CS(=O)(=O)N1CCN(Cc2cc3nc(-c4cccc5[nH]ncc45)nc(N4CCOCC4)c3s2)CC1 [Pictilisib] (partner 1 µM)", "method_in_brief": "as §1"}, "[4]": {"compound": "CC(O)(CS(=O)(=O)c1ccc(F)cc1)C(=O)Nc1ccc(C#N)c(C(F)(F)F)c1 [Bicalutamide] + CC(=O)Nc1cccc(-n2c(=O)n(C3CC3)c(=O)c3c(Nc4ccc(I)cc4F)n(C)c(=O)c(C)c32)c1 [Trametinib] (partner 0.02 µM)", "method_in_brief": "as §1"}}}
{"cell line": "UMC-11", "values": [{"measurement": "relative viability", "setting": "[1]; first compound 1 µM", "result": 0.746}, {"measurement": "relative viability", "setting": "[1]; first compound 3.162 µM", "result": 0.604}, {"measurement": "relative viability", "setting": "[1]; first compound 10 µM", "result": 0.622}, {"measurement": "relative viability", "setting": "[1]; first compound 31.62 µM", "result": 0.732}, {"measurement": "relative viability", "setting": "[1]; first compound 100 µM", "result": 0.748}, {"measurement": "relative viability", "setting": "[2]; first compound 1 µM", "result": 1.15}, {"measurement": "relative viability", "setting": "[2]; first compound 3.162 µM", "result": 0.976}, {"measurement": "relative viability", "setting": "[2]; first compound 10 µM", "result": 1.11}, {"measurement": "relative viability", "setting": "[2]; first compound 31.62 µM", "result": 0.966}, {"measurement": "relative viability", "setting": "[2]; first compound 100 µM", "result": 1.03}, {"measurement": "relative viability", "setting": "[3]; first compound 1 µM", "result": 0.797}, {"measurement": "relative viability", "setting": "[3]; first compound 3.162 µM", "result": 0.797}, {"measurement": "relative viability", "setting": "[3]; first compound 10 µM", "result": 0.956}, {"measurement": "relative viability", "setting": "[3]; first compound 31.62 µM", "result": 0.78}, {"measurement": "relative viability", "setting": "[3]; first compound 100 µM", "result": 0.78}, {"measurement": "relative viability", "setting": "[4]; first compound 0.08 µM", "result": 0.771}, {"measurement": "relative viability", "setting": "[4]; first compound 0.253 µM", "result": 0.572}, {"measurement": "relative viability", "setting": "[4]; first compound 0.8 µM", "result": 0.808}, {"measurement": "relative viability", "setting": "[4]; first compound 2.53 µM", "result": 0.686}]}
